Experimental data published in patent US11045456B2, “Compositions and methods for treating COPD and other inflammatory conditions” (Georgia State University Research Foundation, Inc., priority 2015, dated 2021).
Numbered stars: 1 amine (or outer) side, 2 acyl side, 3 side chain; on linkers, the order of the positions; unused ones are H or OH. Bridge positions count the residues as written; N and C are the ends. Square brackets hold non-standard residues; d marks the D form. Peptide text beside a SMILES is read from it. I, II: the chains in the order shown. Actinocin(9to1) = Cc1c2oc3c(C)ccc(C(=O)[*:1])c3nc-2c(C(=O)[*:2])c(N)c1=O; NMeV = CN[C@H](C(=O)O)C(C)C; Sar = CNCC(=O)O

Columns and labels:
PDE4B2 = PDE4B2 expression (RT-PCR) in BEAS-2B cells; format: cell-based, human; conditions: for NTHi-induced PDE4B2 expression (synergy with NTHi): cAMP elevator / PKA or Epac activator with NTHi
Protocol: (§1) Bacterial strains and culture condition. Clinical isolates of NTHi strain 12 were used in this study (Ishinaga et al., EMBO J., 26(4):1150-1162, 2007). Bacteria were grown on chocolate agar plates at 37° C. in an atmosphere of 5% CO2 overnight and subsequently inoculated in brain heart infusion (BHI) broth supplemented with 3.5 μg/mL NAD and hemoglobin (BD Biosciences). After overnight incubation, the bacteria were subcultured into fresh broth and the log phase bacteria, monitored by measurement of optical density (OD) value, were washed and suspended in DMEM for in vitro cell experiments and in isotonic saline for in vivo animal experiments. For all in vitro experiments except the dose dependent experiment, NTHi was treated at multiplicity of infection (MOI) of 50.
(§2) Cell culture. All media described below were supplemented with 10% fetal bovine serum (Sigma-Aldrich). Human bronchial epithelial BEAS-2B cells were maintained in RPMI medium (Life Technologies) (ATCC® CRL-9609™). Human primary bronchial epithelial NHBE (Lonza) cells were maintained in bronchial epithelial growth media (BEGM) supplemented with BEGM SingleQuots (Jono et al., J. Biol. Chem. 277(47):45547-45557, 2002). BEAS-2B cells stably expressing human PDE4B2 (PDE4B2-stable cells) were obtained by plasmid transfection following Geneticin selection (300 μg/mL). Cells were cultured in a humidified atmosphere of 5% CO2 at 37° C.
Plasmids, transfections and luciferase assay. The expression plasmids, constitutively active forms of IKKα (IKKα-CA, S176E/S180E) and IKKβ (IKKβ-CA, S177E/S181E) and a dominant negative form of IκBα (IκBα-DN, S32A/S36A) were previously described (Shuto et al., Proc. Natl. Acad. Sci. USA, 98(15):8774-8779, 2001; Ishinaga et al., supra). Luciferase reporter construct of NF-κB (pGL4.32) was purchased from Promega. Human PDE4B2, p65 (RelA) and PKA-Cβ1/2 cDNA sequences were generated and inserted into the BamHI and HindIII sites of the pcDNA3.1/mycHis(−) vector. Mutant p65 and PDE4B2-D392A were generated by using PRIMESTAR® Max (Takara). Empty vector was used as a control and was also added where necessary to ensure an equivalent amount of input DNA. All transient transfections were carried out in triplicate using TRANSIT-LT1® reagent (Minis) following the manufacturer's instruction.

p65 = p65 phosphorylation by Phos-tag PAGE in BEAS-2B cells; format: cell-based, human
Protocol: Phos-tag PAGE. Recombinant p65 proteins or nuclear extracts recovered without EDTA/EGTA were separated by SDS-PAGE, with 6% gels containing 50 μM Mn^2+-Phos-tag Acrylamide and transferred to PVDF membrane according to the manufacture's instructions (Kinoshita et al., Mol. Cell. Proteomics 5(4):749-757, 2006.

PDE4B [1] = test: PDE4B mRNA expression (Q-PCR) in BEAS-2B cells stimulated with NTHi; format: cell-based, human; conditions: BEAS-2B; ActD 5 ng/ml and Rof 0.1 μM 1 hour, then 1.5-hour NTHi
Protocol: as §1, §2

PDE4B [2] = test: PDE4B mRNA expression in lung tissues of NTHi-inoculated mice; conditions: mouse lung; DEX 2 mg/kg i.p. and Rof 5 mg/kg i.p. 2 h before NTHi; after 5 h
[3] = tested on: NTHi-induced inflammation; test: NTHi-induced inflammation in mouse lung (proinflammatory mediator mRNA, H&E staining); format: in vivo; conditions: DEX 2 mg/kg i.p. and Rof 5 mg/kg i.p. 2 h before NTHi 5×10^7 CFU/lung
Protocol: Mice and animal experiments. For NTHi-induced inflammation in C57BL/6J mice (7 weeks old), anaesthetized mice were intratracheally inoculated with NTHi at a concentration of 5×10^7 CFU per mouse and saline was inoculated as control.
. We pre-treated BEAS-2B cells with Rof (1 μM), FSK (1 μM), Iso (0.1 μM) and DEX (10 nM) for 1 h followed by 1.5 h stimulation with NTHi, and PDE4B mRNA expression was analyzed by Q-PCR (FIGS. 7A and 7B). We also pre-treated BEAS-2B cells with Rof (0.1 μM) and DEX (6.5 nM) for 1 h followed by 1.5 h stimulation with NTHi, and PDE4B2 mRNA expression was analyzed by semi-quantitative RT-PCR (FIG. 7C). To assess protein expression, BEAS-2B cells were pre-treated with Rof (0.1 μM) and DEX (100 nM) for 1 h followed by a 5 h stimulation with NTHi, and PDE4B protein expression was analyzed by immunoblot (FIG. 7D). Each target data were normalized with NTHi treated. Data are mean±SD (n=3); *p<0.05 vs NTHi; ^†p<0.05 vs Rof+NTHi. […] After 5 h, mRNA expression in lung tissues were analyzed by Q-PCR for assessing the expression of PDE4B or various proinflammatory mediators and lung tissues were stained against PDE4B (Magnification ×200, Scale bar, 100 μm) (FIG. 7F) and assessed for inflammation using H&E staining (FIG. 7H).

[4] = BEAS-2B cells, inhibitor treatment

O=P1(O)OC[C@H]2O[C@@H](n3cnc4c(Nc5ccccc5)ncnc43)[C@@H](O)C2O1 (stereo partly shown) [6-Phe-cAMP, N^6-Phenyl-cAMP]
NTHi-induced PDE4B2 expression (synergy with NTHi) (PDE4B2; BEAS-2B cells): synergistically enhanced
PDE4B2 expression (PDE4B2; in IKKβ-CA- but not IKKα-CA-transfected BEAS-2B cells): synergistically enhanced
phosphorylation of p65 (induction) (p65; roflumilast as co-treatment with NTHi): induced this phosphorylation

CO[C@@H]1[C@@H]2OP(=O)(O)OC[C@H]2O[C@H]1n1c(Sc2ccc(Cl)cc2)nc2c(N)ncnc21 [8-pCPT-2′-O-Me-cAMP]
NTHi-induced PDE4B2 expression (synergy with NTHi) (PDE4B2; BEAS-2B cells): did not markedly synergize

Cc1c2oc3c(C)ccc(C(=O)N[C@@H]4C(=O)N[C@H](C(C)C)C(=O)N5CCC[C@H]5C(=O)N(C)CC(=O)N(C)[C@@H](C(C)C)C(=O)O[C@@H]4C)c3nc-2c(C(=O)N[C@@H]2C(=O)N[C@H](C(C)C)C(=O)N3CCC[C@H]3C(=O)N(C)CC(=O)N(C)[C@@H](C(C)C)C(=O)O[C@@H]2C)c(N)c1=O [ActD, actinomycin D] (I: T[dV]P[Sar][NMeV] / II: T[dV]P[Sar][NMeV]; ester I:1-I:C, II:1-II:C; linker I:N-II:N via Actinocin(9to1))
PDE4B induction by NTHi and roflumilast (PDE4B [1]): completely abrogated

C[C@@H]1C[C@H]2[C@@H]3CCC4=CC(=O)C=C[C@]4(C)[C@@]3(F)[C@@H](O)C[C@]2(C)[C@@]1(O)C(=O)CO [Dexamethasone, dexamethasone]
PDE4B induction by NTHi and Rof (PDE4B [2]): suppresses
efficacy of Rof in suppressing NTHi-induced inflammation [3]: improves the efficacy of Rof

O=S(=O)(NCCNC/C=C/c1ccc(Br)cc1)c1cccc2cnccc12 [H89]
phosphorylation of p65 induced by overexpression of PKA-Cβ1 (inhibition) (p65): inhibited

NC(=O)Nc1sc(-c2ccc(F)cc2)cc1C(N)=O [IKKβ inhibitor]
induction of PDE4B2 by roflumilast alone (PDE4B2; [4]): did not affect
synergistic induction of PDE4B2 by NTHi and roflumilast (PDE4B2; [4]): significantly inhibited

COc1cccc(-c2cc(=O)c3ccccc3o2)c1N [PD98059]
phosphorylation of p65 induced by overexpression of PKA-Cβ1 (inhibition) (p65): not

Nc1ncnc2c1nc(Sc1ccc(Cl)cc1)n2[C@@H]1O[C@@H]2COP(O)(=S)O[C@H]2[C@H]1O (stereo partly shown) [Rp-8-CPT-cAMPS]
phosphorylation of p65 induced by co-treatment of roflumilast with NTHi (inhibition) (p65): inhibited

C[S+]([O-])c1ccc(-c2nc(-c3ccncc3)c(-c3ccc(F)cc3)[nH]2)cc1 (stereo not shown) [SB203580]
phosphorylation of p65 induced by overexpression of PKA-Cβ1 (inhibition) (p65): not
